Test results from US11773075B2, “Modulators of p97 AAA ATPase activity” (University of Pittsburgh—Of the Commonwealth System of …, priority 2017, dated 2023).

Experiments:
p97 = p97 (Homo sapiens, UniProt P55072); experiment: BioMol Green ATPase assay; assay type: biochemical; details: 200 μM ATP, read-out: P97 Biomolgreen
From the text: Biomol Green (Enzo) is a […] from a biochemical reaction. Because of its high sensitivity, the assay is suitable for monitoring enzyme activities at very early substrate conversions requiring very low amount of enzymes. […] The assay procedure used may be the same as in Zhang et al., “Altered cofactor regulation with disease-associated p97/VCP mutations,” Proc. Natl. Acad. Sci. USA, 112(14), E1705-E1714 (2015).
The BioMol Green ATPase assay procedure used was that which was disclosed in Zhang, et al., “Altered cofactor regulation with disease-associated p97/VCP mutations,” Proc. Natl. Acad. Sci. USA, 112(14), E1705-E1714 (2015). The following Table IV provides relevant results. The compound number correlates to the numbered compounds in Table III. Compounds also show activity in a cell-based assay such as the ubiquitin assay (assay as described in, e.g., (1) Dantuma et al., “Short-lived green fluorescent proteins for quantifying ubiquitin/proteasome-dependent proteolysis in living cells,” Nat. Biotechnol. 2000, 18, 538-543; and (2) WO 2010003908).

Chain of p97 (P55072 whole entry): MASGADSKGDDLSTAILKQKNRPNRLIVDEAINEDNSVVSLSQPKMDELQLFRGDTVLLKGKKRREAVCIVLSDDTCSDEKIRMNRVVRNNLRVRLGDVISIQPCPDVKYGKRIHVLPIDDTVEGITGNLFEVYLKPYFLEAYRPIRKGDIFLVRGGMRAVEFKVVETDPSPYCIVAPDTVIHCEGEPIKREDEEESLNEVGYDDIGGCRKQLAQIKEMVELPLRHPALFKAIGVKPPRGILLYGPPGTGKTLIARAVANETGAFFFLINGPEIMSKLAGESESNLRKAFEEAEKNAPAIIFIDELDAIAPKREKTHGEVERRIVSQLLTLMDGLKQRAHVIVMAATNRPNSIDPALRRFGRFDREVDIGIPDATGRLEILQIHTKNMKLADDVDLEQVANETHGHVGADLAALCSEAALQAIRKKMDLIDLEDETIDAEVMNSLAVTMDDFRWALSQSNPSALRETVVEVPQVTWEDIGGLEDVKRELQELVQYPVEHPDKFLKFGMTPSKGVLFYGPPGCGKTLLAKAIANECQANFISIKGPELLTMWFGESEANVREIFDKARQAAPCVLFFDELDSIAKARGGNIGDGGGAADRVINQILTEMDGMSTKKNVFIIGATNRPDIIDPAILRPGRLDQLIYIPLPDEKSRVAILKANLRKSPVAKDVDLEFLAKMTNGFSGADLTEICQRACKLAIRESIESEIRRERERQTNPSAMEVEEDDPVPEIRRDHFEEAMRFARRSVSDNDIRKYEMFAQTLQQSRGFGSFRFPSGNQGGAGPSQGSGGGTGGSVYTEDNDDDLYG

| SMILES | IC50 (p97) | melting point |
| --- | --- | --- |
| Cc1cc(OCc2cnc(SC3C=CCCC3)n2-c2cccnc2)ccc1C#CCO (stereo not shown) [Compound 1, 3-(4-((2-(Cyclohex-2-en-1-ylthio)-1-(pyridin-3-yl)-1H-imidazol-5-yl)methoxy)-2-methylphenyl)prop-2-yn-1-ol] | 37 nM | – |
| Cc1cc(OCc2cnc(SC3C=CCCC3)n2-c2cccnc2)ccc1C#CCOC(=O)NC1CCOCC1 (stereo not shown) [Compound 2] | 34 nM | – |
| COCCNC(=O)OCC#Cc1ccc(OCc2cnc(SC3C=CCCC3)n2-c2cccnc2)cc1C (stereo not shown) [Compound 3] | 39 nM | – |
| Cc1cc(OCc2cnc(SC3C=CCCC3)n2-c2cccnc2)ccc1C#CCOC(=O)NCCN1CCOCC1 (stereo not shown) [Compound 4] | 36 nM | – |
| Cc1cc(OCc2cnc(SC(C)C)n2-c2cccnc2)ccc1C#CCOC(=O)NCCN1CCN(C(C)C)CC1 [Compound 5] | 100 nM | – |
| COCOCC#Cc1ccc(OCc2cnc(SC3C=CCCC3)n2-c2cccnc2)cc1C (stereo not shown) [Compound 6] | 100 nM | – |
| COCCOCC#Cc1ccc(OCc2cnc(SC3C=CCCC3)n2-c2cccnc2)cc1C (stereo not shown) [Compound 7] | 110 nM | – |
| CC(=O)NCC#Cc1ccc(OCc2cnc(SC3C=CCCC3)n2-c2cccnc2)cc1C (stereo not shown) [Compound 8, N-(3-(4-((2-(Cyclohex-2-en-1-ylthio)-1-(pyridin-3-yl)-1H-imidazol-5-yl)methoxy)-2-methylphenyl)-prop-2-yn-1-yl)acetamide] | 60 nM | – |
| Cc1cc(OCc2cnc(SC3C=CCCC3)n2-c2cccnc2)ccc1C#CCNC1CCN(C)CC1 (stereo not shown) [Compound 9, N-(3-(4-((2-(cyclohex-2-en-1-ylthio)-1-(pyridin-3-yl)-1H-imidazol-5-yl)methoxy)-2-methylphenyl)prop-2-yn-1-yl)-1-methylpiperidin-4-amine] | 56 nM | – |
| Cc1cc(OCc2cnc(SC3C=CCCC3)n2-c2cccnc2)ccc1C#CCNCCN(C)C (stereo not shown) [Compound 10] | 50 nM | – |
| Cc1cc(OCc2cnc(SC3C=CCCC3)n2-c2cccnc2)ccc1C#CCOC(=O)NCCN1CCN(C)CC1 (stereo not shown) [Compound 11] | 20 nM | – |
| Cc1cc(OCc2c(Br)nc(SC3C=CCCC3)n2-c2cccnc2)ccc1C#CCO (stereo not shown) [Compound 12] | 50 nM | – |
| Cc1cc(OCc2c(Br)nc(SC3C=CCCC3)n2-c2cccnc2)ccc1C#CCOC(=O)NCCN1CCN(C(C)C)CC1 (stereo not shown) [Compound 13] | 32 nM | – |
| Cc1cc(OCc2cnc(SC3C=CCCC3)n2-c2cccnc2)ccc1C#CCOC(=O)NC(C)C (stereo not shown) [Compound 14] | 27 nM | – |
| Cc1cc(OCc2cnc(SC3C=CCCC3)n2-c2cccnc2)ccc1C#CCOC(=O)NC1CCN(C)CC1 (stereo not shown) [Compound 15] | 14 nM | – |
| CCS(=O)(=O)c1ncc(COc2ccc(C#CCO)c(C)c2)n1-c1cccnc1 [Compound 16, 3-(4-((2-(Ethylsulfonyl)-1-(pyridin-3-yl)-1H-imidazol-5-yl)methoxy)-2-methylphenyl)prop-2-yn-1-ol] | > 6700 nM | – |
| Cc1cc(OCc2cnc(SC3CC3)n2-c2cccnc2)ccc1C#CCO [Compound 17] | 240 nM | – |
| Cc1cc(OCc2c(Cl)nc(SC3C=CCCC3)n2-c2cccnc2)ccc1C#CCO (stereo not shown) [Compound 18] | 34 nM | – |
| Cc1cc(OCc2c(Br)nc(SC3CC3)n2-c2cccnc2)ccc1C#CCOC(=O)N1CCN(C(C)C)CC1 [Compound 19] | 57 nM | – |
| [2H]C1([2H])C([2H])([2H])C([2H])([2H])C([2H])(Sc2nc(Br)c(COc3ccc(C#CCO)c(C)c3)n2-c2cccnc2)C1([2H])[2H] [Compound 20] | 29 nM | – |
| [2H]C1([2H])C([2H])([2H])C([2H])([2H])C([2H])(Sc2nc(Br)c(COc3ccc(C#CCOC(=O)NCCN4CCN(C(C)C)CC4)c(C)c3)n2-c2cccnc2)C1([2H])[2H] [Compound 21] | 17 nM | – |
| Cc1cc(OCc2c(C#N)nc(SC3CCCC3)n2-c2cccnc2)ccc1C#CCO [Compound 22] | 60 nM | – |
| Cc1cc(OCc2c(C#CCO)nc(SC3CCCC3)n2-c2cccnc2)ccc1C#CCO [Compound 23, 3-(4-((2-(Cyclopentylthio)-4-(3-hydroxyprop-1-yn-1-yl)-1-(pyridin-3-yl)-1H-imidazol-5-yl)methoxy)-2-methylphenyl)prop-2-yn-1-ol] | 30 nM | – |

| SMILES | IC50 (p97) | melting point |
| --- | --- | --- |
| CCOC(=O)c1nc(SC2CCCC2)n(-c2cccnc2)c1COc1ccc(C#CCO)c(C)c1 [Compound 24] | 50 nM | – |
| Cc1cc(OCc2c(C(N)=O)nc(SC3CCCC3)n2-c2cccnc2)ccc1C#CCO [Compound 25] | 50 nM | – |
| Cc1cc(OCc2cnc(CC3CCCC3)n2-c2cccnc2)ccc1C#CCOC(=O)NC1CCN(C)CC1 [Compound 26] | 50 nM | – |
| COC(=O)/C=C/c1nc(SC2CCCC2)n(-c2cccnc2)c1COc1ccc(C#CCO)c(C)c1 [Compound 27, Methyl (E)-3-(2-(cyclopentylthio)-5-((4-(3-hydroxyprop-1-yn-1-yl)-3-methylphenoxy)methyl)-1-(pyridin-3-yl)-1H-imidazol-4-yl)acrylate] | 110 nM | – |
| Cc1cc(OCc2c(C(C)(C)O)nc(SC3CCCC3)n2-c2cccnc2)ccc1C#CCO [Compound 28, 3-(4-((2-(Cyclopentylthio)-4-(2-hydroxypropan-2-yl)-1-(pyridin-3-yl)-1H-imidazol-5-yl)methoxy)-2-methylphenyl)prop-2-yn-1-ol] | 250 nM | 119 to 121 °C |
| [2H]C1([2H])C([2H])([2H])C([2H])([2H])C([2H])(Sc2ncc(COc3ccc(-c4ccc(S(C)(=O)=O)cc4)c(C)c3)n2-c2cccnc2)C1([2H])[2H] [Compound 29] | 75 nM | – |
| Cc1cc(OCc2c(Br)nc(SC3C=CCCC3)n2-c2cccnc2)ccc1-c1ccc(S(C)(=O)=O)cc1 (stereo not shown) [Compound 30] | 66 nM | – |
| Cc1cc(OCc2cnc(SC3C=CCCC3)n2-c2cccnc2)ccc1-c1ccc(S(C)(=O)=O)cc1 (stereo not shown) [Compound 31] | 54 nM | – |
| Cc1cc(OCc2c(Cl)nc(SC3C=CCCC3)n2-c2cccnc2)ccc1-c1ccc(S(C)(=O)=O)cc1 (stereo not shown) [Compound 32] | 37 nM | – |
| Fc1cc(OCc2cnc(SC3C=CCCC3)n2-c2cccnc2)ccc1Br (stereo not shown) [Compound 33] | 130 nM | – |
| Cc1cc(OCc2cnc(SC3C=CCCC3)n2-c2cccnc2)ccc1Cl (stereo not shown) [Compound 34] | 160 nM | – |
| [2H]C1([2H])C([2H])([2H])C([2H])([2H])C([2H])(Sc2ncc(COc3cc(F)c(C#CCOC(=O)NC4CCN(C)CC4)cc3F)n2-c2cccnc2)C1([2H])[2H] [Compound 35] | 8 nM | – |
| CN1CCC(NC(=O)OCC#Cc2cc(F)c(OCc3cnc(SC4C=CCCC4)n3-c3cccnc3)cc2F)CC1 (stereo not shown) [Compound 36] | 11 nM | – |
| [2H]C1([2H])C([2H])([2H])C([2H])([2H])C([2H])(Sc2ncc(COc3ccc(C#CCOC(=O)NC4CCN(C)CC4)c(F)c3)n2-c2cccnc2)C1([2H])[2H] [Compound 37, 3-(4-((2-((Cyclopentyl-d9)thio)-1-(pyridin-3-yl)-1H-imidazol-5-yl)methoxy)-2-fluorophenyl)prop-2-yn-1-yl (1-methylpiperidin-4-yl)carbamate] | 17 nM | – |
| [2H]C1([2H])C([2H])([2H])C([2H])([2H])C([2H])(Sc2ncc(COc3cc(F)c(C#CCO)cc3F)n2-c2cccnc2)C1([2H])[2H] [Compound 38] | 19 nM | – |
| [2H]C1([2H])C([2H])([2H])C([2H])([2H])C([2H])(Sc2ncc(COc3cc(F)c(C#CCOC(=O)NC4CCN(C)CC4)c(F)c3)n2-c2cccnc2)C1([2H])[2H] [Compound 39] | 19 nM | – |
| CC#Cc1nc(SC2CCCC2)n(-c2cccnc2)c1COc1cc(F)c(C#CCOC(=O)NC2CCN(C)CC2)c(F)c1 [Compound 40] | 20 nM | – |
| CC#Cc1nc(SC2CCCC2)n(-c2cccnc2)c1COc1cc(F)c(C#CCO)c(F)c1 [Compound 41] | 40 nM | – |
| OCC#Cc1c(F)cc(OCc2c(Cl)nc(SC3C=CCCC3)n2-c2cccnc2)cc1F (stereo not shown) [Compound 42] | 46 nM | – |
| [2H]C1([2H])C([2H])([2H])C([2H])([2H])C([2H])(Sc2ncc(COc3cc(F)c(C#CCO)c(F)c3)n2-c2cccnc2)C1([2H])[2H] [Compound 43] | 56 nM | – |
| [2H]C1([2H])C([2H])([2H])C([2H])([2H])C([2H])(Sc2ncc(COc3cc(Cl)c(C#CCOC(=O)NC4CCN(C)CC4)cc3Cl)n2-c2cccnc2)C1([2H])[2H] [Compound 44] | 60 nM | – |
| [2H]C1([2H])C([2H])([2H])C([2H])([2H])C([2H])(Sc2ncc(COc3cc(Cl)c(C#CCO)cc3Cl)n2-c2cccnc2)C1([2H])[2H] [Compound 45] | 200 nM | – |
